US5440033A, “Indolyl-, pyrrolyl- and pyrazolyl substituted benzazepines” (Schering Corporation, priority 1993, dated 1995)
Like-named read-outs stand apart in the source and are kept apart here.

Tests used:
dopamine D-1 receptor = target: T1, dopamine D-1 receptor (Rattus norvegicus, UniProt P18901); assay: Competitive inhibition assay, displacement of 3H-SCH 23390 (D1), rat striatal tissue; type: binding, rat (male Sprague-Dawley); settings: 3H-SCH 23390 0.3 nM, rat striatum, pH 7.4, 37° C., 15 minutes
T1 construct: Striatal tissue was excised, pooled, and homogenized; from tissue; host or cells: rat brain striatum (male Sprague-Dawley)
Description: (§1) A methodology for characterization of binding and an interpretation of the data are described by Billard et al., Life Sciences 35, 1885 (1984) in which the binding of the benzazepine (R)-(+)-8-chloro-2,3,4,5-tetrahydro-3-methyl-5-phenyl-1H-3-benzazepin-7-olhemimaleate (SCH 23390) to the dopamine D-1 receptor is characterized.
(§2) Tritiated SCH 23390 and tritiated spiperone (a potent D-2 ligand) were obtained as described in the Billard et al. reference supra and serially diluted in 0.05M Tris buffer, pH 7.4, as required. A compound of the invention is diluted in 0.05M Tris buffer, pH 7.4, as required.
(§3) Male Sprague-Dawley rats (200 to 250 g) from Charles River Breeding Laboratories, Mass. were used to obtain brain tissue. The rats were humanely sacrificed and their brains removed and placed on ice. Striatal tissue was excised, pooled, and homogenized (Brinkman Polytron, 10 seconds) in 100 volumes (w/v) of ice cold 50 mM Tris buffer, pH 7.4 (at 25° C.). The homogenate was centrifuged at 20,000×g for 10 minutes. The resultant pellet was rehomogenized in Tris buffer and centrifuged again. The final pellet was resuspended in 50 mM Tris buffer pH 7.4 containing 120 mM NaCl, […], 1 mM CaCl2, and 1 mM MgCl2.
(§4) Polypropylene incubation tubes received 100 μl of the individual test compounds at various concentrations dissolved or suspended in 0.05M Tris, pH 7.4 containing 4 mg/ml methylcellulose, 100 μl of a solution of ^3 H-SCH 23390 in Tris buffer (final reaction mixture concentration=0.3 nM) or 100 μl of a solution of 3H-spiperone in Tris buffer (final concentration=0.2 nM) and 800 μl of tissue suspension (ca. 3 mg/assay). Tubes were incubated at 37° C. for 15 minutes and rapidly vacuum filtered through Whatman GM/B filters and rinsed 4 times with 4 ml of ice cold 50 mM Tris buffer, pH 7.4. The filters were transferred to scintillation vials, equilibrated with 10 ml of scintillant (Scintosol, Isolab, Inc.) for 16 hours at 25° C. and the radioactivity determined in a liquid scintillation counter. Ki values were determined as described by Billard et al. using the relationship Ki =IC50 /(1+([L]/KD)) wherein IC50 =concentration of test drug necessary to displace 50% of specifically bound ^3 H-Sch 23390, [L]=concentration of radioligand used in the assay, and KD =dissociation constant.

D-2 receptor = target: T2, D-2 receptor (Rattus norvegicus, UniProt P61169); assay: Competitive inhibition assay, displacement of 3H-spiperone (D2), rat striatal tissue; type: binding, rat (male Sprague-Dawley); settings: 3H-spiperone 0.2 nM, rat striatum; for Ki: pH 7.4, 37° C., 15 minutes
T2 construct: Striatal tissue was excised, pooled, and homogenized; from tissue; host or cells: rat brain striatum (male Sprague-Dawley)
Description: as §1, §2, §3, §4

[1] = Conditioned avoidance response, monkey (parenthesised entries in the Rat CAR column); type: in vivo
[2] = Conditioned avoidance suppression in rats (CAR); type: in vivo; settings: rat; for minimal effective dose: read-out: Rat CAR (minimal effective dose, MED)
Description: N.Y. Acad. Sci. 66, 740 (1957). A series of experiments was carried out to assess the ability of the compounds of this invention to suppress the conditioned avoidance response (CAR) in rats.
Rats were required to jump onto a platform located 6.75 inches (17.15 cm) above the grid floor of an experimental chamber in response to a 5-second tone to avoid a 10-second foot shock (0.6 ma). Each experimental session consisted of 20 such trials presented at 30-second intervals. A correct CAR is scored whenever the rat jumps onto the platform during the tone (prior to foot shock). An escape response is scored when the rat jumps onto the platform during a shock. A response failure is defined as the lack of an escape response during the 10-second shock period.
Groups of 6-8 rats were trained in two consecutive days (total of 40 trials). Rats that reached criterion on day 2 (correct CARs on 16 or more of the 20 trials) were treated with either a test drug or vehicle on day 3. Suppression of CAR was analyzed statistically using Student's t-test comparing the performances of drug-treated to vehicle-treated rats.

[3] = @ 1 h, lowest dose tested that significantly (P<0.05) reduced avoidance responding

T2 sequence (P61169 whole entry): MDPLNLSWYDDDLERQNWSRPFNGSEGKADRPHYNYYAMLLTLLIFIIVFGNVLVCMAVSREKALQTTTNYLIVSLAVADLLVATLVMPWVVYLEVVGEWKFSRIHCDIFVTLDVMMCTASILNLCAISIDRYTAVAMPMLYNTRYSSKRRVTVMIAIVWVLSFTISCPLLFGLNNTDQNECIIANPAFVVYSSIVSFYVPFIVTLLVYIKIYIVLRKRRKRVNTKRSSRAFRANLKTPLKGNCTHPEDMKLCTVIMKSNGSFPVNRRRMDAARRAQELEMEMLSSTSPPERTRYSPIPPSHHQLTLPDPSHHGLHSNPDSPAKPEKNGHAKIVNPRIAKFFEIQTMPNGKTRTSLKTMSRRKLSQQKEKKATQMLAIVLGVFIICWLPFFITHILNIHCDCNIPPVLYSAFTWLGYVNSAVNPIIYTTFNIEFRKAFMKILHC
T1 sequence (P18901 whole entry): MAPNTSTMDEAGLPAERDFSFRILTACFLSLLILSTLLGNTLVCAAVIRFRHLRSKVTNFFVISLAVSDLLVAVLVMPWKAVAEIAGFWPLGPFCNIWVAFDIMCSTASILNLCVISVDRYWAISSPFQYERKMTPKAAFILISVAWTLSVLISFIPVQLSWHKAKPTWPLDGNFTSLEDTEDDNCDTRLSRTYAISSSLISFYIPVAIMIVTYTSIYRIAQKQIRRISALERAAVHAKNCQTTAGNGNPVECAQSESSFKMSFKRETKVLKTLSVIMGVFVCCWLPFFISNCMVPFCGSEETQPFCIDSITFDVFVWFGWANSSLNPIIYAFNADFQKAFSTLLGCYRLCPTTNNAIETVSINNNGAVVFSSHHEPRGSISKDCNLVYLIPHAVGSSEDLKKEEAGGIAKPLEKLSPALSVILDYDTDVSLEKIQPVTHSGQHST

Row | Ki (dopamine D-1 receptor) [nM] | Ki (D-2 receptor) [nM] | Structure (SMILES) | other results
1 | 2.8 | 2450 | Cc1cc(C2CN(C)CCc3cc(Cl)c(O)cc32)c(C)[nH]1 (racemic) [(±)C] | CAR, monkey ([1]; po @ 6 h): 1.5 mpk; minimal effective dose [2, 3]: 10 mg/kg; minimal effective dose ([2]; @ 6 h): 50 mg/kg
2 | 0.54 | 590 | Cc1cc(C2CN(C)CCc3cc(Cl)c(O)cc32)c(C)[nH]1 (single isomer, unassigned; (+)) [(+)D] | tremors ([2]; 30 po): tremors at 30 po; minimal effective dose [2, 3]: 10 mg/kg
3 | 41 | 613 | Cc1cc(C2CN(C)CCc3cc(Cl)c(O)cc32)c(C)[nH]1 (single isomer, unassigned; (-)) [(-)E] | 
4 | 26 | > 10000 | CN1CCc2cc(Cl)c(O)cc2C(n2ccc3ccccc32)C1 (centres unmarked) [A] | 
5 | 607 |  | Cc1cc2c(cc1O)C(n1ccc3ccccc31)CN(C)CC2 (centres unmarked) [B] | IC50 (D-2 receptor; printed as IC50 in the Ki column): > 10000 nM
6 | 12 | > 10000 | CN1CCc2cc(Cl)c(O)cc2C(n2cccn2)C1 (centres unmarked) [Compound I] | 
7 | 41 | 10000 | CN1CCc2cc(Cl)c(O)cc2C(c2cccn2C)C1 (centres unmarked) [F] | 
8 | 2.8 | 383 | Cc1cc(C2CN(C)CCc3cc(Cl)c(O)cc32)c(C)n1C (centres unmarked) [G] | CAR, monkey ([1]; @ 4 h): 5 mpk; minimal effective dose [2, 3]: 10 mg/kg
9 | 2.2 | 177 | CN1CCc2cc(Cl)c(O)cc2C(c2ccn(C)c2)C1 (centres unmarked) [H] | 
10 | 127 | > 10000 | Cc1[nH]c2ccccc2c1C1CN(C)CCc2cc(Cl)c(O)cc21 (centres unmarked) [J] | 
11 | 55.2 | > 10000 | CN1CCc2cc(Cl)c(O)cc2C(c2c[nH]c3ccccc23)C1 (centres unmarked) [K] | 
